Values after ≈ are worked out from the molar mass of the structure shown. Active and inactive are the calls of the source. The calls are words filed in the database; no cut-off is given here.
Assays:
Candida albicans [1] = experiment: Antifungal activity against Candida albicans at 2 ug/disk; format: functional; details: for zone of inhibition at 2 µg/disc: read-out: IZ
Candida albicans [2] = experiment: Antifungal activity against Candida albicans; format: functional
P388 = experiment: Cytotoxicity against mouse P388 cells; format: functional, cell-based
Aspergillus fumigatus [3] = experiment: Antifungal activity against Aspergillus fumigatus at 2 ug/disk; format: functional; details: read-out: IZ
Aspergillus fumigatus [4] = experiment: Antifungal activity against Aspergillus fumigatus; format: functional

Row | SMILES | Activity (Candida albicans [1]) | Activity (Candida albicans [2]) | IC50 (P388) | zone of inhibition at 2 µg/disc (Candida albicans [1]) | zone of inhibition at 2 µg/disc (Aspergillus fumigatus [3]) | MIC (Candida albicans [2]) | MIC (Aspergillus fumigatus [4])
1 | CO[C@@H]1[C@H](O[C@@H]2CO[C@@H](O[C@@H]3[C@@H](O)[C@H](O)CO[C@H]3N3C(=O)/C(=C(O)/C=C/C=C/C=C/C=C/C=C(Cl)/C=C/C=C/C=C(/C)Cl)C(=O)[C@@H]3CC(N)=O)[C@@H](O)[C@@H]2O)O[C@H](C)[C@H]1O | inactive | inactive |  |  |  |  | 
2 | CO[C@@H]1[C@H](O[C@@H]2CO[C@@H](O[C@@H]3[C@@H](O)[C@H](O)CO[C@H]3N3C(=O)/C(=C(O)/C=C/C=C/C=C/C=C/C=C(Cl)/C=C/C=C(/C)Cl)C(=O)[C@@H]3CC(N)=O)[C@@H](O)[C@@H]2O)O[C@H](C)[C@H]1O [AURANTOSIDE E] |  |  | 0.2 µg/mL (≈ 0.237 µM) | 9.7 mm | 13.6 mm | 0.16 µg/mL (≈ 0.19 µM) | 0.04 µg/mL (≈ 0.0474 µM)
3 | C/C(Cl)=C/C=C/C(Cl)=C/C=C/C=C/C=C/C=C/C(O)=C1\C(=O)[C@H](CC(N)=O)N([C@@H]2OC[C@@H](O)[C@H](O)[C@H]2O[C@@H]2OC[C@@H](O[C@@H]3O[C@H](C)[C@@H](O)[C@@H]3O)[C@@H](O)[C@@H]2O)C1=O [AURANTOSIDE D] |  |  | 0.2 µg/mL (≈ 0.241 µM) | 9.5 mm | 11 mm |  | 
4 | C\C(Cl)=C/C(Cl)=C/C=C/C=C/C=C/C=C/C(O)=C1\C(=O)[C@H](CC(N)=O)N([C@@H]2OC[C@@H](O)[C@H](O)[C@H]2O[C@@H]2OC[C@@H](O[C@@H]3O[C@H](C)[C@@H](O)[C@@H]3O)[C@@H](O)[C@@H]2O)C1=O [AURANTOSIDE B] |  |  | > 5 µg/mL | 11.8 mm | 17.2 mm | 0.63 µg/mL (≈ 0.784 µM) | 0.16 µg/mL (≈ 0.199 µM)
5 | CO[C@@H]1[C@H](O[C@@H]2CO[C@@H](O[C@@H]3[C@@H](O)[C@H](O)CO[C@H]3N3C(=O)/C(=C(O)/C=C/C=C/C=C/C=C/C=C(Cl)/C=C(\C)Cl)C(=O)[C@@H]3CC(N)=O)[C@@H](O)[C@@H]2O)O[C@H](C)[C@H]1O [AURANTOSIDE A] |  |  | > 5 µg/mL | 11.3 mm | 18 mm | 1.25 µg/mL (≈ 1.53 µM) | 0.16 µg/mL (≈ 0.196 µM)

Reference: ChEMBL document CHEMBL1144066, “Aurantosides D, E, and F: new antifungal tetramic acid glycosides from the marine sponge Siliquariaspongia japonica” (J Nat Prod, 1999)
